The text below walks through data of publication PMC11670956, “A cell-based Papain-like Protease (PLpro) activity assay for rapid detection of active SARS-CoV-2 infections and antivirals” (PLOS ONE, 2024).

The experiment concerns the target T1, SARS-CoV-2 Papain-like protease (PLpro) (Severe acute respiratory syndrome coronavirus 2, UniProt P0DTD1).
T1 construct: gene rep; natural full-length PLpro (nsp3) made in infected VeroE6 cells, crude lysate; mature chain nsp3 of replicase polyprotein 1a / 1ab
As to the kind of experiment: fluorogenic Pun74-R110 peptide cleavage in lysates of infected, inhibitor-pretreated VeroE6 cells. The experiment is classed as biochemical. To be noted: unreliable (tentative; one experiment in duplicate); inhibitor given to live cells 2 h before infection (0.01 MOI, 24 h, 37 °C); PLpro read in lysate with 50 nM Pun74-R110, 5 mM DTT, pH 7.4, room temp.

Structures are written as SMILES.

The term IC50 denotes the concentration needed to halve the response being measured. Turning to `Cc1ccc(N)cc1C(=O)N[C@H](C)c1cccc2ccccc12` [GRL0617], the IC50 is 38.3 µM.
